# Source: patent US11952364B2, “TRK inhibitors useful as anticancer drugs” (TYLIGAND BIOSCIENCE (SHANGHAI) LIMITED, priority 2018, dated 2024)
# Legend:
# [1] = biological target: P450 2C9 (Homo sapiens (Human), UniProt P11712); assay: Cytochrome P450 inhibition in human liver microsomes; format: in vitro ADME
# Source text: (§1) According to the standard methods conventional in the art for cytochrome P450 enzyme system study, for example those described in Kerns, Edward H. and Di Li (2008). Drug-like Properties: Concepts. Structure Design and Methods: from ADME to Toxicity Optimization. San Diego: Academic Press; Lin, Tong et al., In Vitro Assessment of Cytochrome P450 Inhibition: Strategies for Increasing LC/MS-Based Assay Throughput Using a One-Point IC50 Method and Multiplexing High-Performance Liquid Chromatography; J. Pharm. Sci. 2007, 96(9), 2485.), the inhibitory effect of the compounds of the present disclosure on the cytochrome P450 enzyme system was investigated analogously as follows. The test compounds were evaluated by detecting the metabolism of human liver microsomes for the substrates of different subtypes of Cyp450. The liver microsomes (Sekisui XenoTech, LLC., human liver microsomes, cat. #H0610) were slowly melted on ice, and 0.482 mL of the liver microsome solution (20 mg/mL) was added to 30 mL of 100 mM potassium phosphate solution to prepare a liver microsome working solution with a concentration of 0.316 mg/mL. The test compound and specific inhibitors of different Cyp450 subtypes (as a control) were prepared into 10 mM DMSO solutions, and then 20 μL of the 10 mM DMSO compound solution was added to 180 μL of acetonitrile to obtain a 1 mM compound solution. 2 μL of such 1 mM test compound or inhibitor solution was added to 150 μL of 0.316 mg/mL liver microsome working solution to obtain a 13.16 μM compound working solution. 45.3 mg of NADPH (SIGMA, cat. #V900362) was weighted and added into 13.59 mL of deionized water to prepare a 4 mM NADPH aqueous solution. 0.2 mL of 2 mg/mL internal standard stock solution (dexamethasone in acetonitrile) was added to 1000 mL of acetonitrile (SIGMA, cat. #271004) to prepare a reaction stop solution and stored at 4° C. 150 μL 0.316 mg/mL human liver microsome working solution was added to each well of a 96-well deep plate, and 2 μL of 1 mM specific inhibitor or test compound solution was added to the corresponding wells, and then added to each well 50 μL preheated working solution of each substrate (in 4 mM NADPH solution). After incubating for 5-40 minutes respectively (different enzymes have different incubation times), 200 μL of pre-cooled reaction stop solution was added. All samples were centrifuged at 4000 rpm for 20 minutes. 150 μL of the centrifugal supernatant was then added to a new 96-well deep plate, and added to each well 150 μL of 0.1% formic acid aqueous solution, for analysis by LC/MS/MS (SCI AP4000). The single point IC50 values were calculated according to the following formula. [formula] • (Assuming Hill slope=1) • C0=concentration of test compound and inhibitor solution
# [2] = biological target: P450 2D6 (Homo sapiens (Human), UniProt P10635); assay: as above; format: in vitro ADME
# Source text: as §1
# [3] = biological target: P450 1A2 (Homo sapiens (Human), UniProt P05177); assay: as above; format: in vitro ADME
# Source text: as §1
# [4] = biological target: P450 2C19 (Homo sapiens (Human), UniProt P33261); assay: as above; format: in vitro ADME
# Source text: as §1
# [5] = biological target: CSF1R (Homo sapiens (Human), UniProt P07333); assay: KINOMEscan competition binding assay
# Protocol: (§2) The experiment was performed according to the standard kinase activity determination protocol by Eurofins DiscoverX Corporation (11180 Roselle St. Suite D, San Diego, CA, USA, www.discoverX.com). Specifically, the experiment was conducted using the KINOMEscan™ screening platform, which adopts an active site-directed competition binding assay to quantitatively measure the interaction between test compounds and more than hundreds of human kinases and disease-related mutants. The working principle of the screening platform and kinase assay methods are well known in the art, for example, see www.discoverX.com.
# [6] = biological target: TRKC (Homo sapiens (Human), UniProt Q16288); assay: KINOMEscan competition binding assay
# Protocol: as §2
# [7] = biological target: PLK4 (Homo sapiens (Human), UniProt O00444); assay: KINOMEscan competition binding assay
# Protocol: as §2
# [8] = biological target: AXL (Homo sapiens (Human), UniProt P30530); assay: KINOMEscan competition binding assay
# Protocol: as §2
# [9] = biological target: FLT3 (Homo sapiens (Human), UniProt P36888); assay: KINOMEscan competition binding assay
# Protocol: as §2
# [10] = biological target: TRKA (Homo sapiens (Human), UniProt P04629); assay: KINOMEscan competition binding assay
# Protocol: as §2
# [11] = biological target: FLT3(K663Q) (Homo sapiens (Human), UniProt P36888, K663Q); assay: KINOMEscan competition binding assay
# Protocol: as §2
# [12] = biological target: TIE2 (Homo sapiens (Human), UniProt Q02763); assay: KINOMEscan competition binding assay
# Protocol: as §2
# [13] = biological target: FLT3(N841I) (Homo sapiens (Human), UniProt P36888, N841I); assay: KINOMEscan competition binding assay
# Protocol: as §2
# [14] = biological target: EPHB6 (Homo sapiens (Human), UniProt O15197); assay: KINOMEscan competition binding assay
# Protocol: as §2
# [15] = biological target: FLT4 (Homo sapiens (Human), UniProt P35916); assay: KINOMEscan competition binding assay
# Protocol: as §2
# [16] = biological target: KIT (Homo sapiens (Human), UniProt P10721); assay: KINOMEscan competition binding assay
# Protocol: as §2
# [17] = biological target: BLK (Homo sapiens (Human), UniProt P51451); assay: KINOMEscan competition binding assay
# Protocol: as §2
# [18] = biological target: CDK7 (Homo sapiens (Human), UniProt P50613); assay: KINOMEscan competition binding assay
# Protocol: as §2
# [19] = biological target: CDKL2 (Homo sapiens (Human), UniProt Q92772); assay: KINOMEscan competition binding assay
# Protocol: as §2
# [20] = biological target: FLT3(D835V) (Homo sapiens (Human), UniProt P36888, D835V); assay: KINOMEscan competition binding assay
# Protocol: as §2
# [21] = biological target: RET(M918T) (Homo sapiens (Human), UniProt P07949, M918T); assay: KINOMEscan competition binding assay
# Protocol: as §2
# [22] = biological target: LCK (Homo sapiens (Human), UniProt P06239); assay: KINOMEscan competition binding assay
# Protocol: as §2
# [23] = biological target: MYO3B (Homo sapiens (Human), UniProt Q8WXR4); assay: KINOMEscan competition binding assay
# Protocol: as §2
# Sequence of P450 2C9 (P11712 whole entry): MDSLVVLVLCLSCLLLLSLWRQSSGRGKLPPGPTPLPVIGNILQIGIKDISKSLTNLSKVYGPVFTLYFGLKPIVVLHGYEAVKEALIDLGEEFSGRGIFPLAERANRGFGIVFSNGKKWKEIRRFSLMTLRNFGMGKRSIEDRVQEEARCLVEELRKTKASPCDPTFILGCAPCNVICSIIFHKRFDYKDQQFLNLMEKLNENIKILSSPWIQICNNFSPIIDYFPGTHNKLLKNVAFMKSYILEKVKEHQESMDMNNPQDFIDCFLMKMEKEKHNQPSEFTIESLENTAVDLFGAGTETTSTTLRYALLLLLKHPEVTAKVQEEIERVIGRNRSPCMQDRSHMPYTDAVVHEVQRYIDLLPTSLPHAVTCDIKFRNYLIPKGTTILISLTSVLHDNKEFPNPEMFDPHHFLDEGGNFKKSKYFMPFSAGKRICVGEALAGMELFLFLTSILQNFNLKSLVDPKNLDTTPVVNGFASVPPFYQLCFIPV
# Sequence of P450 1A2 (P05177 whole entry): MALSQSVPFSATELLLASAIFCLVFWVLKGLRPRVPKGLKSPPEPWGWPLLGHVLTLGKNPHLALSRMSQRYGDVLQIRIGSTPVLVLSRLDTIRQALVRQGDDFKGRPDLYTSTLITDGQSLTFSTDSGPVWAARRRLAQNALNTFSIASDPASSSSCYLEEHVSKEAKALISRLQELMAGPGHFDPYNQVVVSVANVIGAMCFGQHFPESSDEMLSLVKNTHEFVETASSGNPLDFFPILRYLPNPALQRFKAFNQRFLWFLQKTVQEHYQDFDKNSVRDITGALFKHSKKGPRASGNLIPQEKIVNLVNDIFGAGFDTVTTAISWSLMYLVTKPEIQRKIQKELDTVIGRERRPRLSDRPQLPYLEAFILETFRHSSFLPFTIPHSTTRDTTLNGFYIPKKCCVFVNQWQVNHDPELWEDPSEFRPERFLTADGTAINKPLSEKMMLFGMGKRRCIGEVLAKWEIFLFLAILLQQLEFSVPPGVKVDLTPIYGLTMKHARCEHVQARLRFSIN
# Sequence of P450 2D6 (P10635 whole entry): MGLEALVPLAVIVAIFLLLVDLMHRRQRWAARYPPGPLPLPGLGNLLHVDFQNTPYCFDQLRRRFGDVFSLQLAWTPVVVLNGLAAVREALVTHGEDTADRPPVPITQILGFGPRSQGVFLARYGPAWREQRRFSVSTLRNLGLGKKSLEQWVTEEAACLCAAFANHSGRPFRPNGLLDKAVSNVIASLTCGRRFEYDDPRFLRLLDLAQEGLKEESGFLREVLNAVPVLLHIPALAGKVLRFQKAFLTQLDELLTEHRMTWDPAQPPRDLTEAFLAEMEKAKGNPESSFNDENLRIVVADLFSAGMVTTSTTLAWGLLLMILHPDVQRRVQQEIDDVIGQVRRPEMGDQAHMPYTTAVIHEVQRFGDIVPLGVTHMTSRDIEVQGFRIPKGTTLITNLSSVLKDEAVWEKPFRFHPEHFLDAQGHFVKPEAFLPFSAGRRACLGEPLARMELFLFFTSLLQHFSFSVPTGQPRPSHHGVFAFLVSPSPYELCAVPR
# Sequence of P450 2C19 (P33261 whole entry): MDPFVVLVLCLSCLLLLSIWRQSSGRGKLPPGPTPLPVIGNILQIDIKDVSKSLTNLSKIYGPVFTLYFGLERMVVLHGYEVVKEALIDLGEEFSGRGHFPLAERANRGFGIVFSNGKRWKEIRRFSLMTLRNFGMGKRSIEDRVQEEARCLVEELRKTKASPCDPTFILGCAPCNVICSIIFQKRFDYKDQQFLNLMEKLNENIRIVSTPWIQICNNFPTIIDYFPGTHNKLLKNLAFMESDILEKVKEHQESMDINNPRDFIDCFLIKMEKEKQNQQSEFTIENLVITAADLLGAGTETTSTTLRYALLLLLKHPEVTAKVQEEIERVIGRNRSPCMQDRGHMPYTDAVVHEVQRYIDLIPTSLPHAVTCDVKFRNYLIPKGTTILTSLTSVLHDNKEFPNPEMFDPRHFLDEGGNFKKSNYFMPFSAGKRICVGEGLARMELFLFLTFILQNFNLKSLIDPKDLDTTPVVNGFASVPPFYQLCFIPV
# Sequence of EPHB6 (O15197 32-1021): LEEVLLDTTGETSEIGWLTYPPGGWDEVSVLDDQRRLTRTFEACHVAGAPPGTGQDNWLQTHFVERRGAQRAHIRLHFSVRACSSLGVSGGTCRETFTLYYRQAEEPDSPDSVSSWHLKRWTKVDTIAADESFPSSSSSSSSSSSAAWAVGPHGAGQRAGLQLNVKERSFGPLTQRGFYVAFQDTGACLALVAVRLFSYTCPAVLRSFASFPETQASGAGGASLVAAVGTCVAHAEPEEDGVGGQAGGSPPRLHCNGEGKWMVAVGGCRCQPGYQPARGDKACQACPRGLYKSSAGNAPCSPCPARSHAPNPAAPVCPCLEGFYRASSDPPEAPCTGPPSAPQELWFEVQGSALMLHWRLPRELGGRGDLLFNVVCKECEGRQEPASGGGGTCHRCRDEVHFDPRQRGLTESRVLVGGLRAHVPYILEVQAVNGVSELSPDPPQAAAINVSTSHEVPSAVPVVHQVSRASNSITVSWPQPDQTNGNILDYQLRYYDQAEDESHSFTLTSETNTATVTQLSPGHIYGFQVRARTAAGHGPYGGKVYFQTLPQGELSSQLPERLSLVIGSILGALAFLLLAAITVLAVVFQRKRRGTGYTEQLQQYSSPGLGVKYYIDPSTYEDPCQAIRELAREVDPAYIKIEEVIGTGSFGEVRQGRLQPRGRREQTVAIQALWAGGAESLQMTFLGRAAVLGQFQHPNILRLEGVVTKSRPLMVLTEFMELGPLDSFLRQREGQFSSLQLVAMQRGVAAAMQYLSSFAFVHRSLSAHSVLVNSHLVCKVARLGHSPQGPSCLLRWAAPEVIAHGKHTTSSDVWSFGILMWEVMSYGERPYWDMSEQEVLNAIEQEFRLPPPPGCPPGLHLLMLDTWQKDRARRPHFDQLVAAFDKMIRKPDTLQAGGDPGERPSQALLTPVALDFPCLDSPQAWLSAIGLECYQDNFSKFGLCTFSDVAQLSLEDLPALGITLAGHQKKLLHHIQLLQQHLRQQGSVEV
# Sequence of CSF1R (P07333 20-972): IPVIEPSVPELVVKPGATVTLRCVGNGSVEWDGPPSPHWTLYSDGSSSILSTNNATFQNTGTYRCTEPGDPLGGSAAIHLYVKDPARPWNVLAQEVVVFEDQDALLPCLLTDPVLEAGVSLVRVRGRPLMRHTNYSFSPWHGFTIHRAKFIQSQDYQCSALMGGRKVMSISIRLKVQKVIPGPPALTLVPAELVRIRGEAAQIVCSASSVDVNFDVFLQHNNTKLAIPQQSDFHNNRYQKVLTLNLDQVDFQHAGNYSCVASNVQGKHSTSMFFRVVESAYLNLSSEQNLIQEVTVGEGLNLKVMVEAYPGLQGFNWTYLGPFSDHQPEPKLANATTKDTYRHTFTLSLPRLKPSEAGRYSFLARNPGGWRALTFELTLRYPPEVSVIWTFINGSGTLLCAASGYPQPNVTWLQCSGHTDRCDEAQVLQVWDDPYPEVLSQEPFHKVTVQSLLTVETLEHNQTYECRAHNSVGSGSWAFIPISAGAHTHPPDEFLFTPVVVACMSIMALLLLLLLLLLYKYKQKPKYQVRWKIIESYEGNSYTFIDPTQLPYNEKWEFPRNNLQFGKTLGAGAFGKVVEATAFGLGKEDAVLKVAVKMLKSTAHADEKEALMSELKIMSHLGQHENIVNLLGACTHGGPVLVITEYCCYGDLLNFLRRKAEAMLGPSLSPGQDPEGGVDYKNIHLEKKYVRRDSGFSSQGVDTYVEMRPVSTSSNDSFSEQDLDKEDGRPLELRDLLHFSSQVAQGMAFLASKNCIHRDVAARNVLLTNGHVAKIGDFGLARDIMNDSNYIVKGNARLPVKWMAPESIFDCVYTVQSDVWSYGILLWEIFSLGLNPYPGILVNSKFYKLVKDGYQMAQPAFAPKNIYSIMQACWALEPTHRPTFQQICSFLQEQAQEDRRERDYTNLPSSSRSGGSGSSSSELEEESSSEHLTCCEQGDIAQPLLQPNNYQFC
# Sequence of TRKC (Q16288 32-839): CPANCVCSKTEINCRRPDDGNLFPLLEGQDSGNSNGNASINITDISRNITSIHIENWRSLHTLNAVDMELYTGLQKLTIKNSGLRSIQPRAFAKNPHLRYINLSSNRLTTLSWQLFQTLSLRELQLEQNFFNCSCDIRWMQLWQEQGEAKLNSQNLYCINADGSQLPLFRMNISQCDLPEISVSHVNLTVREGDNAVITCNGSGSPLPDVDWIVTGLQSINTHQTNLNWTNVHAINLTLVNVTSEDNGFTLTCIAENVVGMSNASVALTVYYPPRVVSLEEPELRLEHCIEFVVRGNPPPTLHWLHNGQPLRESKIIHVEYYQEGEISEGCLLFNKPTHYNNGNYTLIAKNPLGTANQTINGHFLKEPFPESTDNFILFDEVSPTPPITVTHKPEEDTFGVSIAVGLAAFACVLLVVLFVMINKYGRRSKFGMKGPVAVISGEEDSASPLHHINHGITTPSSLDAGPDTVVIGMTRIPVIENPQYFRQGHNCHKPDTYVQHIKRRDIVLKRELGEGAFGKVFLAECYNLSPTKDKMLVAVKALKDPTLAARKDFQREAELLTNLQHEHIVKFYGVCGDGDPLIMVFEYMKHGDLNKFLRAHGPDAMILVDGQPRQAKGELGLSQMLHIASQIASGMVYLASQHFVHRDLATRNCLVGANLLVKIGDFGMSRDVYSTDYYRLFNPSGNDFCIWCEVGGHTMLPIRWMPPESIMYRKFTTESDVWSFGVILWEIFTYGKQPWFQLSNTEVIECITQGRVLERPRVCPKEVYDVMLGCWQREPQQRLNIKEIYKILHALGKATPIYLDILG
structure (smiles),measurement,setting,value
"Cc1ccc(C(=O)Nc2ccc(Oc3cc4cnn(C)c4cc3-c3cn[nH]c3)c(F)c2)c(=O)n1-c1ccc(F)cc1 [Merestinib, reference compound]",IC50,[1],4.2 µM
same,IC50,[2],> 10 µM
same,IC50,[3],> 10 µM
same,IC50,[4],> 10 µM
"COc1ccc(C(=O)Nc2ccc(Oc3cc4cnn(C)c4cc3-c3cn[nH]c3)c(F)c2)c(=O)n1-c1ccc(F)cc1 [Example 12, N-(3-fluoro-4-(1-methyl-6-(1H-pyrazol-4-yl)-1H-indazol-5-yloxy)phenyl)-1-(4-fluorophenyl)-6-methoxy-2-oxo-1,2-dihydropyridine-3-carboxamide]",inhibition at 2 µM,[5],100%
same,inhibition at 2 µM,[6],97%
same,inhibition at 2 µM,[7],90%
same,inhibition at 2 µM,[8],100%
same,inhibition at 2 µM,[9],99%
same,inhibition at 2 µM,[10],100%
same,inhibition at 2 µM,[11],93%
same,inhibition at 2 µM,[12],99%
same,inhibition at 2 µM,[13],100%
same,inhibition at 2 µM,[14],95%
same,inhibition at 2 µM,[15],92%
same,inhibition at 2 µM,[16],100%
same,inhibition at 2 µM,[17],95%
same,inhibition at 2 µM,[18],96%
same,inhibition at 2 µM,[19],100%
same,inhibition at 2 µM,[20],93%
same,inhibition at 2 µM,[21],95%
same,inhibition at 2 µM,[22],97%
same,inhibition at 2 µM,[23],100%
same,IC50,[1],9.8 µM
same,inhibitory activity on 2C9 compared with Merestinib,[1]; statement in words,significantly lower than that of the prior inhibitor Merestinib
same,IC50,[2],> 10 µM
same,IC50,[3],> 10 µM
same,IC50,[4],> 10 µM
